Assay results reported in PMC3726930, “Synthesis and Biological Activity of N-Sulfonyltripeptides with C-Terminal Arginine as Potential Serine Proteases Inhibitors” (International Journal of Peptide Research and Therapeutics, 2012).
Read-outs that look alike come from different tables or passages of the source. Where a SMILES comes first, the peptide text is derived from it. [ ]: non-standard residue; d: D form. The star is where a group is joined. Ms = CS(=O)(=O)*

How the values were obtained:
thrombin = thrombin (Bos taurus, UniProt P00735); assay: Amidolytic activity of thrombin, substrate S-2238; type: biochemical; conditions: Ki calculated from IC50 by Cheng-Prusoff, n.i. = no effect at maximum concentration 20 mM, read-out: Ki ± SD Thrombin
Protocol: (§1) Determination of amidolytic activity was performed as previously described (Okada et al. [1988]). The detailed description of the method is given below. The buffer and the enzyme solution included: • tris buffer—0.6 ml (pH 8.8), […]
(§2) synthetic substrate: S-2444 (0.1 ml, 3 mM); • (b) tris buffer—0.5 ml (pH 8.4), enzyme: thrombin (1 U/ml), synthetic substrate: S-2238 (0.2 ml, 0.75 mM); • (c) tris buffer—0.5 ml (pH 7.4), Buffer and 0.1 ml of enzyme solution was added to 0.2 ml of examined compound dissolved in 0.15 M NaCl (1–17) (as control 0.15 M NaCl). The mixture was incubated for 3 min at 37 °C, then the synthetic substrate was added. After 20 min of incubation, the reaction was stopped by adding 0.1 ml of 50 % acetic acid, and the absorbance of the released p-nitroaniline was measured at 405 nm (Spekol 1300, AnalyticJena). Every value represents the average of the triplicate determination. IC50 value was considered as the concentration of the inhibitor, which decreased the absorbance at 405 nm by 50 %, compared with the absorbance measured under the same conditions without the inhibitor. Ki was calculated from IC50 based on Cheng–Prusoff equation (Cheng and Prusoff [1973]).

urokinase = urokinase (Homo sapiens, UniProt P00749); assay: Amidolytic activity of urokinase, substrate S-2444; type: biochemical; conditions: Ki calculated from IC50 by Cheng-Prusoff; triplicate; n.i. = no effect at maximum concentration 20 mM; read-out: Ki ± SD Urokinase S-2444
Protocol: Determination of amidolytic activity was performed as previously described (Okada et al. [1988]). The detailed description of the method is given below. The buffer and the enzyme solution included: • tris buffer—0.6 ml (pH 8.8),
enzyme: urokinase (50 U/ml),
synthetic substrate: S-2444 (0.1 ml, 3 mM); • (b) tris buffer—0.5 ml (pH 8.4),
as §2, with “Buffer” for “synthetic substrate: S-2444 (0.1 ml, 3 mM); • (b) tris buffer—0.5 ml (pH 8.4), enzyme: thrombin (1 U/ml), synthetic substrate: S-2238 (0.2 ml, 0.75 mM); • (c) tris buffer—0.5 ml (pH 7.4), Buffer”

MDA-MB-231 cells = conditions: 24 h
plasmin [1] = molecular target: T1, plasmin (Homo sapiens, UniProt P00747); assay: Amidolytic activity of plasmin, substrate S-2251; type: biochemical; conditions: Ki calculated from IC50 by Cheng-Prusoff; triplicate; read-out: Ki ± SD Plasmin S-2251
T1 construct: converts the pro-enzyme plasminogen into its active form plasmin; purchased Chromogenix (Milano, Italy)
Protocol: as §1
as §2, with “synthetic” for “synthetic substrate: S-2444 (0.1 ml, 3 mM); • (b) tris buffer—0.5 ml (pH 8.4), enzyme: thrombin (1 U/ml), synthetic”, “7.4), enzyme: plasmin (0.4 U/ml), synthetic substrate: S-2251 (0.2 ml, 3 mM); • (d) […] buffer—0.5 ml (pH 7.5),” for “7.4),”

plasmin [2] = molecular target: T1, plasmin; assay: SPRI, immobilised inhibitor interacting with plasmin; type: binding; conditions: plasmin 1 ng/ml
Source text: Gold chips were manufactured as described in previous papers (Gorodkiewicz [2009]; Gorodkiewicz and Regulska [2010]; Gorodkiewicz et al. [2011]). The gold surface of the chip was covered with photopolymer and hydrophobic paint. 9 × 12 free gold surfaces were obtained. Using this chip, nine different solutions can be simultaneously measured without mixing the tested solutions. Twelve single SPRI measurements can be performed from one solution.
Chips were rinsed with ethanol and water and dried under a stream of nitrogen. They were then immersed in 20 mM cysteamine ethanolic solutions for at least 2 h. The chips were then rinsed with ethanol and water and dried under a stream of nitrogen.
Among the synthesised compounds, four were selected for the examination of the interaction between the enzyme and the inhibitor. They were acids of peptides 10, 12, 13 and 14. Acids can be bound to a gold surface via cysteamine. […]
SPRI measurements with an application of an enzyme array were performed as described in previous papers (Gorodkiewicz [2009]; Gorodkiewicz and Regulska [2010]; Gorodkiewicz et al. [2011]). Briefly, the measurements were performed at a fixed angle of incident light and the reflectivity was simultaneously measured across an entire chip surface. […] The signal was measured twice on the basis of registered images, after immobilisation of enzymes and then after interaction inhibitors. […]

DLD cells = conditions: 24 h
plasmin [3] = molecular target: T1, plasmin; conditions: ref Lynas et al. [2001]; cited from earlier work

T1 sequence (P00747 581-810 limits assumed): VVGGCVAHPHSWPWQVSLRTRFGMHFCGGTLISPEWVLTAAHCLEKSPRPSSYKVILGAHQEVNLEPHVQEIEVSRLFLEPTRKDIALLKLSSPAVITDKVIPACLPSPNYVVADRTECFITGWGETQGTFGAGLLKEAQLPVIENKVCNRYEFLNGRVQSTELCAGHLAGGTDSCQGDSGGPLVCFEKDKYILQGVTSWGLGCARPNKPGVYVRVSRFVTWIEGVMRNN
T1 sequence (P00747 97-580 partner limits assumed): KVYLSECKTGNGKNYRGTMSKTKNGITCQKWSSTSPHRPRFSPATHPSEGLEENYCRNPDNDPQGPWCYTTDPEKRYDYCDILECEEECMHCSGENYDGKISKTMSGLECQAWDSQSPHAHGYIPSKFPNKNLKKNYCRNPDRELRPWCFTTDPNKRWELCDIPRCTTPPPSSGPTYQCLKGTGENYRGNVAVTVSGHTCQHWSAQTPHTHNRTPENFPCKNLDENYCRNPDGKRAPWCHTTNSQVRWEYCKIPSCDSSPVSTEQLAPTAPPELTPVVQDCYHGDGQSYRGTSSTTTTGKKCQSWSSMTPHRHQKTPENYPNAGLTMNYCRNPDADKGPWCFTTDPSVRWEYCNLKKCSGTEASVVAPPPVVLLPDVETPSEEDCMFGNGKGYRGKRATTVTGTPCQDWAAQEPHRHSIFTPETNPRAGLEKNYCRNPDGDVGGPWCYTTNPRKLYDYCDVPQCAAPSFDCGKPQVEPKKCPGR

Molecule	Ki (thrombin)	Ki (urokinase)	IC50 (MDA-MB-231 cells)	Ki (plasmin [1])	Inhibitor concentration above which the SPRI signal plateaus (plasmin) (plasmin [2]; Langmuir isotherm type curve)	SPRI signal for plasmin after interaction with inhibitor (plasmin [2]; inhibitor 0.002-0.2 mM)	IC50 (DLD cells)	Ki (plasmin [3])
CS(=O)(=O)N[C@H](CO)C(=O)NCC(=O)N[C@@H](CCCNC(=N)N)C(=O)O [Compound 12, CH3PhSO2-D-Ser-Gly-Arg-OH] (Ms-[dS]-Gly-Arg-OH; N-terminus and C-terminus assumed)	> 20000 µM	11.2 ± 0.89 µM	620 µM	10 ± 0.8 µM	above 0.02 mM	positive SPRI signal	230 µM	–
Ac-Leu-Leu-Arg-COCHO	–	–	–	–	–	–	–	4.9 µM
